Results on 4 compounds are retold here after DBAASP.

Among the test systems are Pseudomonas aeruginosa; Vibrio alginolyticus; Aeromonas salmonicida; Klebsiella pneumoniae; Lactococcus garvieae; Staphylococcus aureus; Streptococcus iniae; Aeromonas hydrophila; Escherichia coli; Shigella flexneri; Enterococcus faecalis; Vibrio harveyi; Vibrio parahaemolyticus; Escherichia coli SPE 001; Escherichia coli W3110.
Holding throughout (experiment): ≥ marks a high value that may be exact or a test limit, other limits are often not marked, values filed in µg/mL are converted to µM
Experiment [1] has as its system Enterococcus faecalis ATCC 29212.
Experiment [2] has as its system Escherichia coli ATCC 25922.
In experiment [3] the test system is Vibrio anguillarum ATCC 19264.
In experiment [4] the test system is Shigella flexneri ATCC 12022.
The subject of experiment [5] is Lactococcus garvieae 00-1422.
Experiment [6] concerns Streptococcus iniae 00-1425.
For experiment [7], the system named is Aeromonas salmonicida NCTC 7812.
In experiment [8] the test system is Staphylococcus aureus BCRC 10780.
For experiment [9], the system named is Vibrio alginolyticus BCRC 12829.
Experiment [10] relates to Vibrio anguillarum serotype O1.
Experiment [11] relates to Escherichia coli BCRC 10675.
Experiment [12] concerns Klebsiella oxytoca BCRC 13985.
The subject of experiment [13] is Listeria monocytogenes BCRC 14845.
Experiment [14] concerns Pseudomonas aeruginosa BCRC 10944.
The test system of experiment [15] is Vibrio parahaemolyticus BCRC 10806.
Experiment [16] has as its system Enterobacter cloacae BCRC 10401.
Experiment [17] has as its system Staphylococcus xylosus BCRC 12930.
Experiment [18] relates to Yersinia enterocolitica BCRC 13999.
For experiment [19], the system named is Staphylococcus aureus BCRC 10781.
The test system of experiment [20] is Streptococcus equinus BCRC 14729.
For experiment [21], the system named is Klebsiella aerogenes BCRC 10370.
Experiment [22] relates to Staphylococcus aureus SPM 101.
Experiment [23] concerns Staphylococcus aureus NBRC 100910.
Experiment [24] has as its system Candida albicans NBRC 1385.
In experiment [25] the test system is Escherichia coli K-12 594.
Experiment [26] relates to Staphylococcus aureus ATCC 6538P.
The subject of experiment [27] is Staphylococcus aureus SR1550.
In experiment [28] the test system is Streptococcus mitis ATCC 903.
Experiment [29] has as its system Streptococcus sanguinis NY101.
Experiment [30] deals with Pseudomonas aeruginosa PAK.
Experiment [31] relates to Streptococcus gordonii Challis DL1.
In experiment [32] the test system is Streptococcus mutans UA159.

In brackets after ≈: the same amount, converted by molar mass. Where only a bound is given, the exact number is not on record here.

On to `CC[C@H](C)[C@H](NC(=O)CNC(=O)[C@H](CCCN=C(N)N)NC(=O)[C@H](Cc1ccccc1)NC(=O)[C@@H](NC(=O)[C@H](Cc1cnc[nH]1)NC(=O)[C@H](Cc1cnc[nH]1)NC(=O)[C@@H](NC(=O)[C@@H](N)Cc1ccccc1)[C@@H](C)CC)[C@@H](C)CC)C(=O)N[C@H](C(=O)N[C@@H](Cc1cnc[nH]1)C(=O)N[C@@H](C)C(=O)NCC(=O)N[C@@H](CCCN=C(N)N)C(=O)N[C@@H](CO)C(=O)N[C@H](C(=O)NCC(=O)N[C@@H](CCCN=C(N)N)C(=O)N[C@@H](Cc1ccccc1)C(=O)N[C@@H](CC(C)C)C(=O)N[C@H](C(=O)NCC(=O)O)[C@@H](C)O)[C@@H](C)CC)C(C)C` [FIHHIFRGIVHAGRSIGRFLTG], for which the minimum inhibitory concentration (MIC) with Pseudomonas aeruginosa was found to be 10 µM (≈ 25 µg/mL); in [1], 1.26 µM (≈ 3.14 µg/mL); in experiment [2], 80.3 µM (≈ 200 µg/mL); in experiment [3], 3.55 µM (≈ 8.85 µg/mL); against Vibrio alginolyticus, 2.53 µM (≈ 6.3 µg/mL); in [4], 20.1 µM (≈ 50 µg/mL). Also, the minimum inhibitory concentration (MIC) with Aeromonas salmonicida worked out at 5.02 µM (≈ 12.5 µg/mL); in experiment [5], 20.1 µM (≈ 50 µg/mL); in the experiment on Klebsiella pneumoniae, 2.53 µM (≈ 6.3 µg/mL); against Lactococcus garvieae it was 1.77 µM (≈ 4.42 µg/mL); in [6] it was 2.51 µM (≈ 6.25 µg/mL); in the experiment with Staphylococcus aureus, 1.24 µM (≈ 3.1 µg/mL). Further, the minimal inhibitory concentration (MIC) against Streptococcus iniae was 1.24 µM (≈ 3.1 µg/mL); against Aeromonas hydrophila, 0.642 µM (≈ 1.6 µg/mL); against Escherichia coli, 1.24 µM (≈ 3.1 µg/mL); in [7], not below 80.3 µM; in the experiment on Shigella flexneri, 2.53 µM (≈ 6.3 µg/mL); in the experiment on Enterococcus faecalis, 5.02 µM (≈ 12.5 µg/mL).

Regarding `CC[C@H](C)[C@H](NC(=O)[C@@H](NC(=O)[C@H](CCCCN)NC(=O)[C@H](Cc1ccc(O)cc1)NC(=O)[C@H](Cc1ccccc1)NC(=O)[C@H](CCCCN)NC(=O)[C@@H](NC(=O)[C@H](Cc1ccccc1)NC(=O)[C@H](C)NC(=O)[C@@H](NC(=O)[C@H](C)NC(=O)[C@H](C)NC(=O)[C@H](CCCCN)NC(=O)[C@@H](NC(=O)[C@H](CC(C)C)NC(=O)[C@H](C)NC(=O)[C@H](CCCCN)NC(=O)[C@H](C)NC(=O)CN)[C@@H](C)O)[C@@H](C)O)[C@@H](C)O)[C@@H](C)O)C(=O)N[C@@H](Cc1c[nH]c2ccccc12)C(=O)O` [GAKALTKAATAFTKFYKTIW], the MIC is not below 57.7 µM in [8]; not below 57.7 µM in experiment [9]; 28.9 µM (≈ 64 µg/mL) in experiment [10]; 7.21 µM (≈ 16 µg/mL) in experiment [11]; 7.21 µM (≈ 16 µg/mL) in experiment [12]; 28.9 µM (≈ 64 µg/mL) in experiment [13]. For the same compound, the minimal inhibitory concentration (MIC) was 28.9 µM (≈ 64 µg/mL) in experiment [14]; 14.4 µM (≈ 32 µg/mL) against Vibrio alginolyticus; not below 57.7 µM in experiment [15]; 28.9 µM (≈ 64 µg/mL) in the experiment with Vibrio harveyi; 14.4 µM (≈ 32 µg/mL) against Vibrio parahaemolyticus; 7.21 µM (≈ 16 µg/mL) in experiment [16]. The MIC with Lactococcus garvieae is not below 57.7 µM; in experiment [17] it was 28.9 µM (≈ 64 µg/mL); in experiment [18] it was not below 57.7 µM; in experiment [19] it was not below 57.7 µM; in experiment [20], not below 57.7 µM; with Streptococcus iniae, not below 57.7 µM. The MIC in experiment [21] is 7.21 µM (≈ 16 µg/mL).

For `CC(C)C[C@H](NC(=O)[C@H](CCCCN)NC(=O)[C@H](CC(C)C)NC(=O)[C@H](CC(C)C)NC(=O)[C@H](CC(C)C)NC(=O)[C@H](CC(C)C)NC(=O)[C@H](CC(C)C)NC(=O)[C@H](CCCCN)NC(=O)[C@H](CC(C)C)NC(=O)[C@@H](N)CCCCN)C(=O)N[C@@H](CCCCN)C(N)=O` [KLKLLLLLKLK], the MIC in experiment [22] is 0.378 µM (≈ 0.5 µg/mL); in experiment [23], 12.1 µM (≈ 16 µg/mL); in experiment [24], not below 48.4 µM; in experiment [25], 15.1 µM (≈ 20 µg/mL); with Escherichia coli SPE 001 it was 12.1 µM (≈ 16 µg/mL); in [26], 1.51 µM (≈ 2 µg/mL). In addition, the values for the minimal inhibitory concentration (MIC) (in [27]; against Escherichia coli W3110) were 22.7 µM (≈ 30 µg/mL) and 12.1 µM (≈ 16 µg/mL), respectively.

As for `CC[C@H](C)[C@H](NC(=O)[C@H](Cc1ccccc1)NC(=O)CNC(=O)CNC(=O)[C@H](CO)NC(=O)[C@H](Cc1ccccc1)NC(=O)[C@H](Cc1c[nH]c2ccccc12)NC(=O)[C@H](CCCN=C(N)N)NC(=O)[C@H](Cc1c[nH]c2ccccc12)NC(=O)[C@H](CCCN=C(N)N)NC(=O)[C@H](Cc1c[nH]c2ccccc12)NC(=O)[C@@H](N)CCCN=C(N)N)C(=O)N[C@@H](CCCCN)C(=O)N[C@@H](Cc1cnc[nH]1)C(=O)N[C@@H](Cc1ccccc1)C(=O)N[C@H](C(=O)N[C@@H](Cc1cnc[nH]1)C(=O)N[C@@H](CCCN=C(N)N)C(=O)N[C@@H](Cc1ccccc1)C(N)=O)[C@@H](C)CC` [RWRWRWFSGGFIKHFIHRF], the minimal inhibitory concentration (MIC) is 12.2 µM (≈ 32 µg/mL) in experiment [28]; 12.2 µM (≈ 32 µg/mL) in experiment [29]; 23.9 µM (≈ 62.5 µg/mL) in experiment [30]; 12.2 µM (≈ 32 µg/mL) in experiment [31]; 12.2 µM (≈ 32 µg/mL) in the experiment on Staphylococcus aureus; 3.05 µM (≈ 8 µg/mL) in [32].

A word on the MIC: it is the lowest concentration that inhibits growth of the organism. Low values mean greater potency, high ones weaker potency.
